Reference: patent US10851092B2, “Pyridine compound” (Daiichi Sankyo Company, Limited, priority 2016, dated 2020)
Read-outs that look alike come from different tables or passages of the source.

How the values were obtained:
[1] = test system: thyroid gland cancer cell line TT having RET activating mutation (C634W); test: Cell growth inhibitory activity, thyroid gland cancer cell line TT; assay type: cell-based; settings: Homo sapiens, 216 h; TT cells, 9 days, CellTiter-Glo
Experimental: The cell growth inhibitory activity of the test compound on the thyroid gland cancer cell line TT having RET activating mutation (C634W) (Biochemical and Biophysical Research Communications. 1995 Feb. 27 (207), 1022-1028) was measured.
TT cells were seeded on a 96-well plate at a cell density of 5,000 cells per well, and were then cultured at 37° C. in the presence of 5% CO2 overnight in an F-12K nutrient mixture medium containing 10% FBS. Thereafter, the compound was diluted, and then added to the 96-well plate. As a negative control, dimethyl sulfoxide (hereinafter referred to as DMSO) was added. The obtained mixture was cultured at 37° C. in the presence of 5% CO2 for 9 days, and thereafter, a cell count measuring reagent CellTiter-Glo® Luminescent Cell Viability Assay was added to the culture, followed by stirring the mixture. Thereafter, using a luminescence measurement device Envision (Perkin Elmer), the luminescence intensity was measured. The measurement value of a well to which only the medium had been added was define as a survival rate of 0%, and the measurement value of a well to which DMSO had been added was defined as a survival rate of 100%. The survival rate of the TT cells in the presence of each concentration of the test compound was calculated.

[2] = test system: non-small cell lung cancer cell line LC-2/ad having a CCDC6-RET fusion gene; test: Cell growth inhibitory activity, non-small cell lung cancer cell line LC-2/ad; assay type: cell-based; settings: Homo sapiens, 216 h; LC-2/ad cells, 9 days, CellTiter-Glo
Experimental: The cell growth inhibitory activity of the test compound on the non-small cell lung cancer cell line LC-2/ad having a CCDC6-RET fusion gene (RIKEN, J Thorac Oncol. 2012 December, 7(12), 1872-6) was measured.
LC-2/ad cells were seeded on a 96-well plate at a cell density of 5,000 cells per well, and then cultured at 37° C. in the presence of 5% CO2 overnight in a medium prepared by mixing RPMI-1640 containing 15% FBS and 25 mM HEPES with Ham's F12 Mixture at a mixing ratio of 1:1. Thereafter, the test compound was diluted, and then added to the 96-well plate. As a negative control, dimethyl sulfoxide (hereinafter referred to as DMSO) was added. The obtained mixture was cultured at 37° C. in the presence of 5% CO2 for 9 days, and thereafter, a cell count measuring reagent CellTiter-Glo® Luminescent Cell Viability Assay (Promega, # G7571) was added to the culture, followed by stirring the mixture. Thereafter, using a luminescence measurement device Envision, the luminescence intensity was measured. The measurement value of a well to which only the medium had been added was define as a survival rate of 0%, and the measurement value of a well to which DMSO had been added was defined as a survival rate of 100%. The survival rate of the LC-2/ad cells in the presence of each concentration of the test compound was calculated.

[3] = test system: non-small cell lung cancer cell line LC-2/ad xenograft; test: Antitumor activity in xenograft model established with LC-2/ad; assay type: in vivo, NOG mice; settings: oral
Source text: (§1) Cells of a non-small cell lung cancer cell line LC-2/ad (RIKEN, J Thorac Oncol. 2012 December, 7(12), 1872-6) suspended in DPBS (Gibco, #14190) were mixed with an equal amount of Corning Matrigel Basement Membrane Matrix (Corning, #354234), and the obtained mixture was then subcutaneously transplanted into NOG mice to form a tumor. (The NOG mice were acclimatized after they had been received from In Vivo Science Inc., and thereafter, the cells were transplanted into the mice when the mice were 9 week olds. As feedstuff, FR-2 (manufactured by Funabashi Farm Co., Ltd.) was used.) After the tumor had reached a size of 100 to 200 mm^3, the mice were randomized based on tumor diameter, and oral administration of the compound of Example 4 (hereinafter referred to as Compound A) was then initiated. As a solvent for dissolving Compound A, 1% hydroxypropyl methyl cellulose was used. […] Moreover, the tumor was collected (no administration was carried out on the Vehicle group) two hours and six hours after the final administration of Compound A, and the RET phosphorylation of the tyrosine at position 905 used as an indicator of RET kinase activity (pRET(Y905), Nature Medicine, 18, 375-377 (2012)) was then detected by the Western blotting method.

[4] = biological target: RET phosphorylation of the tyrosine at position 905 (pRET(Y905)) (Homo sapiens (Human), UniProt P07949+Q16204); test: RET phosphorylation (Y905) in LC-2/ad xenograft tumors, Western blotting; assay type: in vivo, NOG mice; settings: tumor collected two and six hours after final administration (FIG. 2)
Source text: as §1

KDR kinase = KDR kinase (Homo sapiens (Human), UniProt P35968); test: Evaluation of KDR kinase inhibiting activity (cell system), HUVEC, AlphaLISA; assay type: cell-based
Experimental: HUVEC cells were seeded on a plate at a cell density of 1500 cells per well, and then cultured overnight. The test compound (10 uM, 2.5 uM, 625 nM, 156 nM, […], 10 nM, 2.5 nM, or 0.6 nM) was added to each well, followed by culturing the obtained mixture for 2 hours. Thereafter, VEGF165 (Peprotech, #100-20) was added to the culture at a final concentration of 50 ng/ml, and the obtained mixture was then reacted at 37° C. for 5 minutes. Thereafter, the resulting cells were lysed with 50 ul of Lysis buffer included in AlphaLISA SureFire Ultra (Perkin Elmer, # ALSU-PVGFR-A500), and Acceptor beads and Donor beads were then added to 10 ul of the cell lysate according to the instruction manual included with the aforementioned kit. The mixture thus obtained was reacted at room temperature overnight, and thereafter, a KDR kinase inhibiting activity rate was measured using Envision (Perkin Elmer).
The value for a well to which only the Lysis buffer had been added was subtracted as a background from all of the values. Thereafter, the value for a well to which […] had been added and the test compound had not been added was defined as a KDR kinase activity of 100%, and the obtained value was corrected.

KDR kinase, sequence (P35968 20-1356): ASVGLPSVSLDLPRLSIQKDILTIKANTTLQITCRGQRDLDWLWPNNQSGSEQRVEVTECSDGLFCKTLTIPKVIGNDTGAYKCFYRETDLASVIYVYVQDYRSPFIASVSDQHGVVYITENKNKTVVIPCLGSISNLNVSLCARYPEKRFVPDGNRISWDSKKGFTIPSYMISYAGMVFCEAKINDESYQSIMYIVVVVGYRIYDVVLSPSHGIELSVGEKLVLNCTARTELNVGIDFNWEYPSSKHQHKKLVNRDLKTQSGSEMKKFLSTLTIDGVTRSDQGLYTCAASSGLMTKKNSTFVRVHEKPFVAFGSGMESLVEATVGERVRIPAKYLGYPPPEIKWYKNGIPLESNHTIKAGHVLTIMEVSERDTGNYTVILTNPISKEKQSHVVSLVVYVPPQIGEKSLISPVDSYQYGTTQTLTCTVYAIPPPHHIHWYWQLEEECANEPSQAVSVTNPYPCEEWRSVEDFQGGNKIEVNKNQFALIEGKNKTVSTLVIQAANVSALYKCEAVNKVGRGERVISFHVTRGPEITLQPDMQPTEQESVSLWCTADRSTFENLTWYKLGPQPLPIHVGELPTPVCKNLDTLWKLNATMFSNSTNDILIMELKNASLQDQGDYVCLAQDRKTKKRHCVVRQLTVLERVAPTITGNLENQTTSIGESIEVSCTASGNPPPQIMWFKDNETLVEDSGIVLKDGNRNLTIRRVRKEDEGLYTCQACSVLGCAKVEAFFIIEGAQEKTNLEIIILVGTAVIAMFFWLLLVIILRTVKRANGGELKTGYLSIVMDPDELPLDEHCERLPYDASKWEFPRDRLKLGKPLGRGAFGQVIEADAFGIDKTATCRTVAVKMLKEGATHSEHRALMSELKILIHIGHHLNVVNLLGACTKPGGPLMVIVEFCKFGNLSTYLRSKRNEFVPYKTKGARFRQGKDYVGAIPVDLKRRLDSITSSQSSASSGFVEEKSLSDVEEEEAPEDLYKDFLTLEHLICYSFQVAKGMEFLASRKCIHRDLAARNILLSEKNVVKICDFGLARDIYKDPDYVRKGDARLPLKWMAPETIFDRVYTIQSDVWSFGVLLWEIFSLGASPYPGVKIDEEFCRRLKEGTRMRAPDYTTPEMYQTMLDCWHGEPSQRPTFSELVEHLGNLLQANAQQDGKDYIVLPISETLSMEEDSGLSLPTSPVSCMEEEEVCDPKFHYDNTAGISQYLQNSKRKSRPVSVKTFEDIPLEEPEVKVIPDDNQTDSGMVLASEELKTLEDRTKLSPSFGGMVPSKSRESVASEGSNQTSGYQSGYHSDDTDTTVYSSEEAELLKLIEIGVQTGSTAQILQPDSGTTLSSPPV
RET phosphorylation of the tyrosine at position 905 (pRET(Y905)), sequence (P07949 other isoform, or with tags, fused parts or gaps): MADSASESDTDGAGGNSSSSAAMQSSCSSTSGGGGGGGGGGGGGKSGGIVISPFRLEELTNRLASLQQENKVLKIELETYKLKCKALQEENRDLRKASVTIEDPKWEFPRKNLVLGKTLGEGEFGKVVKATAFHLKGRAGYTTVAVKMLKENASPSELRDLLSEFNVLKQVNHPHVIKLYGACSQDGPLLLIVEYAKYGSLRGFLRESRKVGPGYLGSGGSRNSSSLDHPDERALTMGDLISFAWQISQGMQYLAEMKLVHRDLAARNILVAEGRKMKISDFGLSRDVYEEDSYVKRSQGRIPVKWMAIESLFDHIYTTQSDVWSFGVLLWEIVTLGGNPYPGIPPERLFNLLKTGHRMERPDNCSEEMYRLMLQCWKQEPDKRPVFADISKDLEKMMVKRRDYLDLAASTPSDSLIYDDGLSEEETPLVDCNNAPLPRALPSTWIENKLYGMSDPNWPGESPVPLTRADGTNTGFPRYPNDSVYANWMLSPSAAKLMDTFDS

With COc1cc2cc(-c3ccc(CC(=O)Nc4cc(C(C)(C)C(F)(F)F)no4)cn3)cnc2cc1OC [Example 4, 2-[6-(6,7-Dimethoxyquinolin-3-yl)pyridin-3-yl]-N-[3-(1,1,1-trifluoro-2-methylpropan-2-yl)-1,2-oxazol-5-yl]acetamide Methanesulfonate] the IC50 [1] was 6 nM, the IC50 [2] was 49 nM and the tumor regression ([3]; 3 mg/kg or 1 mg/kg three times a day for 9 days (FIG. 1)) was “dose-dependent tumor regression”. For the same compound, the “reduction in body weight” value ([3]; 3 mg/kg or 1 mg/kg three times a day for 9 days, compared to Vehicle group) was “no significant reduction in body weight”, the “suppression of the phosphorylation of Y905 (pRET(Y905))” value [4] was “dose-dependent suppression of the phosphorylation of Y905” and the IC50 (KDR kinase; KDR, HUVEC cells, VEGF165 50 ng/ml, compound 2 hours, read-out: IC50) was 298 nM. It also gave an IC50 (KDR kinase; cell system, Form: Mesylate, read-out: IC50 (nM) KDR) of 287 nM.
